In US10966426B2, “Herbicidal compositions comprising phenylpyrimidines” (BASF SE, priority 2016, dated 2021):

Experiments:
Type in all cases: in vivo
[1] = test system: Alopecurus myosuroides; experiment: greenhouse pre-emergence treatment, ALOMY
Outline: (§1)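 Damage rated on 0 to 100 scale (0 = normal growth, 100 = no emergence or total above-ground kill) after 2-4 weeks at species-dependent 10-25° C or 20-35° C. Seeds sown per species in loamy sand, ~3.0% humus, treated right after sowing with aqueous spray of single actives or 10% emulsion-concentrate mixtures, then hooded; additive expectation by Colby.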

[2] = test system: Papaver rhoeas; experiment: greenhouse pre-emergence treatment, PAPRH; conditions: 20 DAT; for % activity, solo application: Table X6
Outline: as §1

[3] = test system: Avena fatua; experiment: greenhouse pre-emergence treatment, AVEFA; conditions: AVEFA
Outline: as §1

[4] = test system: Polygonum convolvulus; experiment: greenhouse pre-emergence treatment, POLCO; conditions: POLCO; for % activity, solo application: Table X1
Outline: as §1

[5] = test system: Setaria viridis; experiment: greenhouse pre-emergence treatment, SETVI; conditions: SETVI
Outline: as §1

[6] = test system: Galium aparine; experiment: greenhouse pre-emergence treatment, GALAP; conditions: GALAP
Outline: as §1

[7] = test system: Digitaria sanguinalis; experiment: greenhouse pre-emergence treatment, DIGSA; conditions: DIGSA; for % activity, solo application: 62.5 gai/ha
Outline: as §1

[8] = test system: Apera spica-venti; experiment: greenhouse pre-emergence treatment, APESV; conditions: solo, 20 DAT
Outline: as §1

[9] = test system: Galium aparine; experiment: greenhouse post-emergence treatment, GALAP; conditions: GALAP
Outline: (§2)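 Scale 0–100 damage rating (100 = complete destruction of above-ground parts, 0 = normal growth), read 2 to 4 weeks after post-emergence application of aqueous spray liquor to plants 3–15 cm tall.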

[10] = test system: Echinocloa crus-galli; experiment: greenhouse post-emergence treatment, ECHCG; conditions: ECHCG
Outline: as §2

[11] = test system: Digitaria sanguinalis; experiment: greenhouse post-emergence treatment, DIGSA; conditions: DIGSA
Outline: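 Pot trial in loamy sand with about 3.0% humus; plants sown in place or transplanted as seedlings a few days before treatment, kept at 10-25° C or 20-35° C by species, water as solvent. Damage scored 0 (none) to 100 (full destruction) over 2 to 4 weeks; combination expectation by Colby, E=X+Y−(X·Y/100).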

[12] = Table X13, 20 DAT, solo Ex. 5 31.25 gai/ha
[13] = solo Ex. 5 31.25 gai/ha, 20 DAT
[14] = Ex. 5 solo, 62.5 gai/ha, 20 DAT
[15] = Table X9, 21 DAT, solo Ex. 5 250 gai/ha
[16] = Table X13, 20 DAT, solo Ex. 5 62.5 gai/ha
[17] = Table X13, 20 DAT, solo Ex. 5 125 gai/ha
[18] = Table X10, 20 DAT, solo Ex. 5 125 gai/ha
[19] = Table X9, 21 DAT, solo Ex. 5 125 gai/ha
[20] = 20 DAT, solo Ex. 5 31.25 gai/ha
[21] = Table X8, 20 DAT, solo Ex. 5 250 gai/ha
[22] = Table X12, 20 DAT, solo Ex. 5 125 gai/ha

With `O=C(O)c1nc(C2CC2)ncc1-c1ccccc1Cl` [Ex. 5] the “% activity” value [1, 12] was 90%, the “% activity” value [1, 13] was 90% and the “% activity” value ([1]; solo Ex. 5 62.5 gai/ha, 20 DAT) was 90%. For the same compound, the “% activity” value ([2]; solo Ex. 5 31.25 gai/ha) was 0%, the “% activity, solo application” value ([2]; 31.25 gai/ha) was 20% and the “% activity, solo application” value ([2]; 125 gai/ha) was 85%. For the same compound, the “% activity” value ([2]; solo, 62.5 gai/ha) was 70%, the “% activity, solo application” value ([3]; 250 gai/ha, 20 DAT, Table X1) was 90% and the “% activity” value ([3]; 20 DAT, solo Ex. 5 62.5 gai/ha) was 75%. The “% activity” value ([3]; solo Ex. 5 125 gai/ha, 20 DAT) was 90%, the “% activity” value [3, 14] was 75% and the “% activity” value ([3]; Ex. 5 solo, 125 gai/ha, 20 DAT) was 90%. For the same compound, the “% activity” value [3, 15] was 90%, the “% activity” value [3, 12] was 65% and the “% activity” value [3, 16] was 80%. For the same compound, the “% activity” value [3, 17] was 85%, the “% activity, solo application” value ([4]; 62.5 gai/ha, 20 DAT) was 60% and the “% activity, solo application” value ([4]; 125 gai/ha, 20 DAT) was 80%. For the same compound, the “% activity” value [4, 14] was 65%, the “% activity” value ([4]; Table X10, 20 DAT, solo Ex. 5 31.25 gai/ha) was 60% and the “% activity” value [4, 18] was 80%. The “% activity” value [4, 12] was 60%, the “% activity” value [4, 16] was 75% and the “% activity” value ([4]; Table X13, 20 DAT, solo Ex. 5 250 gai/ha) was 90%. For the same compound, the “% activity” value ([4]; Table X14, 20 DAT, solo Ex. 5 31.25 gai/ha) was 60%, the “% activity” value ([4]; solo, 31.25 gai/ha, 20 DAT) was 35% and the “% activity” value ([4]; solo, 62.5 gai/ha, 21 DAT) was 70%. For the same compound, the “% activity” value ([4]; solo, 125 gai/ha, 21 DAT) was 85%, the “% activity, solo application” value ([5]; 31.25 gai/ha, 20 DAT, Table X6) was 0% and the “% activity, solo application” value ([5]; 125 gai/ha, 20 DAT, Table X1) was 45%. For the same compound, the “% activity, solo application” value ([5]; 125 gai/ha, 20 DAT, Table X2) was 60%, the “% activity, solo application” value ([5]; 125 gai/ha, 20 DAT, Table X6) was 60% and the “% activity, solo application” value ([5]; 250 gai/ha, 20 DAT, Table X1) was 65%. The “% activity” value ([5]; Ex. 5 solo, 125 gai/ha, 20 DAT) was 50%, the “% activity” value ([5]; 20 DAT, solo Ex. 5 62.5 gai/ha) was 30% and the “% activity” value ([5]; 20 DAT, solo Ex. 5 125 gai/ha) was 50%. The “% activity” value [5, 13] was 35%, the “% activity” value ([5]; solo Ex. 5 125 gai/ha, 20 DAT) was 45% and the “% activity” value [5, 19] was 50%. The “% activity” value [5, 12] was 20%, the “% activity” value [5, 16] was 35% and the “% activity” value ([5]; solo, 31.25 gai/ha, 20 DAT) was 10%. The “% activity” value ([5]; solo, 62.5 gai/ha, 21 DAT) was 45%, the “% activity” value ([5]; solo, 125 gai/ha, 20 DAT) was 45% and the “% activity” value ([5]; solo, 125 gai/ha, 21 DAT) was 60%. For the same compound, the “% activity” value ([5]; solo, 250 gai/ha, 21 DAT) was 65%, the “% activity, solo application” value ([6]; 62.5 gai/ha, 20 DAT, Table X1) was 0% and the “% activity, solo application” value ([6]; 62.5 gai/ha, 20 DAT, Table X2) was 0%. The “% activity, solo application” value ([6]; 62.5 gai/ha, 20 DAT, Table X6) was 0%, the “% activity, solo application” value ([6]; 125 gai/ha, 20 DAT, Table X2) was 40% and the “% activity” value [6, 14] was 0%. The “% activity” value ([6]; Ex. 5 solo, 125 gai/ha, 20 DAT) was 0%, the “% activity” value [6, 20] was 0% and the “% activity” value ([6]; 20 DAT, solo Ex. 5 62.5 gai/ha) was 0%. The “% activity” value ([6]; 20 DAT, solo Ex. 5 125 gai/ha) was 0%, the “% activity” value [6, 13] was 0% and the “% activity” value ([6]; solo Ex. 5 62.5 gai/ha, 20 DAT) was 0%. For the same compound, the “% activity” value ([6]; solo Ex. 5 125 gai/ha, 20 DAT) was 0%, the “% activity” value [6, 19] was 0% and the “% activity” value [6, 15] was 0%. For the same compound, the “% activity” value ([6]; Table X10, 20 DAT, solo Ex. 5 62.5 gai/ha) was 0%, the “% activity” value [6, 18] was 20% and the “% activity” value ([6]; Table X10, 20 DAT, solo Ex. 5 250 gai/ha) was 35%. For the same compound, the “% activity” value ([6]; Table X11, 20 DAT, solo Ex. 5 62.5 gai/ha) was 0%, the “% activity” value ([6]; Table X11, 20 DAT, solo Ex. 5 125 gai/ha) was 0% and the “% activity” value [6, 16] was 20%. For the same compound, the “% activity” value [6, 17] was 35%, the “% activity” value ([6]; solo, 31.25 gai/ha, 20 DAT) was 0% and the “% activity” value ([6]; solo, 62.5 gai/ha, 20 DAT) was 0%. For the same compound, the “% activity” value ([6]; solo, 125 gai/ha, 20 DAT) was 0%, the “% activity” value ([6]; solo, 250 gai/ha, 21 DAT) was 25% and the “% activity, solo application” value ([7]; 20 DAT, Table X2) was 65%. For the same compound, the “% activity, solo application” value ([7]; 20 DAT, Table X6) was 65%, the “% activity” value [7, 20] was 40% and the “% activity” value [7, 19] was 90%. For the same compound, the “% activity” value [7, 17] was 90%, the “% activity” value ([7]; solo, 31.25 gai/ha, 20 DAT) was 65% and the “% activity” value ([7]; solo, 125 gai/ha, 21 DAT) was 60%. For the same compound, the “% activity” value ([7]; solo, 250 gai/ha, 21 DAT) was 65%, the “% activity” value ([8]; 31.25 gai/ha) was 75% and the “% activity” value ([8]; 125 gai/ha) was 80%. For the same compound, the “% activity, solo application” value ([9]; 125 gai/ha, 20 DAT, Table X4) was 0%, the “% activity, solo application” value ([9]; 125 gai/ha, 20 DAT, Table X5) was 0% and the “% activity, solo application” value ([9]; 250 gai/ha, 20 DAT, Table X4) was 30%. The “% activity, solo application” value ([9]; 250 gai/ha, 20 DAT, Table X5) was 0%, the “% activity” value ([9]; Ex. 5 solo, 31.25 gai/ha, 21 DAT) was 10% and the “% activity” value [9, 14] was 0%. The “% activity” value ([9]; Ex. 5 solo, 250 gai/ha, 21 DAT) was 25%, the “% activity” value ([9]; solo Ex. 5 62.5 gai/ha, 20 DAT) was 0% and the “% activity” value ([9]; solo Ex. 5 125 gai/ha, 20 DAT) was 0%. For the same compound, the “% activity” value ([9]; solo Ex. 5 125 gai/ha, 21 DAT) was 0%, the “% activity” value [9, 21] was 20% and the “% activity” value ([9]; Table X12, 20 DAT, solo Ex. 5 62.5 gai/ha) was 0%. The “% activity” value [9, 22] was 0%, the “% activity” value ([9]; solo, 62.5 gai/ha, 20 DAT) was 0% and the “% activity” value ([9]; solo, 125 gai/ha, 20 DAT) was 0%. The “% activity” value ([9]; solo, 250 gai/ha, 20 DAT) was 30%, the “% activity, solo application” value ([10]; 62.5 gai/ha, 20 DAT, Table X3) was 65% and the “% activity” value ([10]; solo Ex. 5 125 gai/ha, 21 DAT) was 65%. The “% activity” value ([10]; solo Ex. 5 250 gai/ha, 21 DAT) was 65%, the “% activity” value [10, 22] was 65% and the “% activity, solo application” value ([11]; 62.5 gai/ha, 20 DAT, Table X3) was 30%. For the same compound, the “% activity, solo application” value ([11]; 125 gai/ha, 20 DAT, Table X4) was 50%, the “% activity, solo application” value ([11]; 125 gai/ha, 20 DAT, Table X5) was 65% and the “% activity, solo application” value ([11]; 250 gai/ha, 20 DAT, Table X4) was 70%. For the same compound, the “% activity, solo application” value ([11]; 250 gai/ha, 20 DAT, Table X5) was 70%, the “% activity” value ([11]; 21 DAT, solo Ex. 5 125 gai/ha) was 60% and the “% activity” value ([11]; 21 DAT, solo Ex. 5 250 gai/ha) was 80%. For the same compound, the “% activity” value ([11]; solo Ex. 5 62.5 gai/ha, 20 DAT) was 35%, the “% activity” value ([11]; solo Ex. 5 125 gai/ha, 21 DAT) was 45% and the “% activity” value ([11]; solo Ex. 5 250 gai/ha, 21 DAT) was 65%. The “% activity” value ([11]; solo Ex. 5 500 gai/ha, 20 DAT, 2nd series of rows) was 75%, the “% activity” value ([11]; Ex. 5 solo, 62.5 gai/ha, 21 DAT) was 35% and the “% activity” value [11, 21] was 65%. For the same compound, the “% activity” value ([11]; solo, 62.5 gai/ha, 20 DAT) was 35% and the “% activity” value ([11]; solo, 125 gai/ha, 20 DAT) was 50%.
